The target in experiment [1] is T1, GBD (gelatin-binding domain, ^6FnI^1–2FnII^7–9FnI, residues 305–608) of human FN (Homo sapiens, UniProt P02751, H307D/N528Q/R534K).
T1 construct: FN fragments corresponding to residues 305–608 (GBD); made in house
Kind of experiment: Fluorescence polarization titrations of 5-carboxyfluorescein-labelled collagen peptides with GBD. Particulars: FA: fluorescence polarization, 75 nM N-terminal 5-carboxyfluorescein peptide, increasing protein, PBS, 25 °C, single binding model. From the text: (§1) FN fragments corresponding to residues 305–608 (GBD), 305–515 (^6FnI^1–2FnII^7FnI), and 516–608 (^8–9FnI) and bearing single amino acid substitutions to improve solubility and protein yields (H307D, N528Q, and R534K) were produced as described previously ([7], [26], [32]). Synthetic collagen peptides were purchased from GL Biochem (Shanghai, China); their sequences are provided in Table 1, and unless fluorescently tagged, they included a C-terminal tyrosine residue for UV determination of peptide concentration. Fluorescent peptides had 5-carboxyfluorescein attached to the N-terminal amine group.
Fluorescence polarization measurements were performed at 25 °C in PBS using SpectraMax M5 (Molecular Devices) and PHERAstar FS (BMG Labtech) fluorometers. […] Differences in fluorescence polarization were fit using a single binding model in the program Origin (OriginLab) ([33]).
On the technique in general: Polarisation of emitted light reports the rotation of a fluorescent probe.

Experiment [2] has as its target T2, ^8–9FnI (FN residues 516–608) (Homo sapiens, UniProt P02751, N528Q/R534K).
T2 construct: and 516–608 (^8–9FnI); made in house
Put plainly: ^1H-^15N heteronuclear single quantum correlation NMR titrations with ^8–9FnI. In kind it is binding. Particulars: NMR ^1H-^15N HSQC titration, PBS pH 7.2, 25 °C; for Kd: single binding event fit.
Source text: as §1
(§2) NMR spectrometers used superconducting magnets (Oxford Instruments) at 950- and 500-MHz proton resonance frequencies (home-built or Bruker AVANCE II consoles and room temperature or cryogenic probe heads, respectively). Spectra were recorded in PBS (20 mM Na2HPO4 (pH 7.2) and 150 mM NaCl) with 1% 4,4-dimethyl-4-silapentane-1-sulfonic acid as a calibration standard. Experiment temperatures were optimized to avoid resonance broadening due to intermediate exchange phenomena and corresponded to 25 °C (^8–9FnI) or 37 °C (^6FnI^1–2FnII^7FnI). Sequential chemical shift assignments were performed earlier ([7], [26]). Analysis of spectral perturbations upon protein interactions and determination of equilibrium parameters were performed as described ([33]).

The target of experiment [3] is T2, ^8–9FnI (FN residues 516–608). Particulars: NMR titration; cited from earlier work. From the text:
TABLE 1 KD values for collagen I peptide binding to FN fragments α1 and α2 chain numbering is taken to begin at the estimated start of the helical region. “O” in peptide sequences denotes 4-hydroxyproline. NMR, ^1H-^15N heteronuclear single quantum correlation NMR titrations; FA, fluorescence polarization titrations using N-terminal 5-carboxyfluorescein labeling. In titrations where no binding was | column: KD / ^8–9FnI || To firmly establish the elusive molecular interplay between the GBD and the most common collagen (type I), we first need to understand the exact nature of the binding site. […] At a distance of ∼1/10 (D-period 1, peptides AN and CN) or 3/4 (D-period 4, peptides BN and DN) from the N terminus of the triple hel ... || FIGURE 3. GBD-binding sites on collagen type I. A, schematic representation of the collagen type I α1 and α2 chains and the two FN-binding sites at 1/10 and 3/4 sequence distance from the collagen N terminus. ^8–9FnI-binding sites (peptides AN, BN, CN, and DN) are shown in blue, with the sequences immediately C-terminal thereof (peptides AC, BC, CC, and DC) shown in red. Dissociation constants are indicated. Highlighted in green is the only site where the two GBD subfragments, ^6FnI^1–2FnII^7FnI and ^8–9FnI, bind collagen type I cooperatively. B, amino acid sequences of peptides A–D. Conserved ...
Target sequence in this assay (P02751 516-608 N528Q/R534K): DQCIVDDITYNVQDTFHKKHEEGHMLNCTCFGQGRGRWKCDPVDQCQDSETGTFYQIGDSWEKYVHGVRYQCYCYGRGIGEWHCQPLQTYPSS

Experiment [4] has as its target T3, ^6FnI^1–2FnII^7FnI (FN residues 305–515) (Homo sapiens, UniProt P02751, H307D).
T3 construct: 305–515 (^6FnI^1–2FnII^7FnI); made in house
Put plainly: ^1H-^15N heteronuclear single quantum correlation NMR titrations with ^6FnI^1–2FnII^7FnI. Particulars: NMR ^1H-^15N HSQC titration, chemical shift analysis, PBS pH 7.2, 37 °C. In kind it is binding.
Source text: as §1, §2

Experiment [5] concerns the target collagen type I alpha2 peptide D, G772-G820, 5-carboxyfluorescein labelled. Kind of experiment: fluorescence polarisation; 75 nM 5-carboxyfluorescein-labelled peptide, increasing concentrations of protein, 96-well plates, 25 °C, PBS; single binding model.
For experiment [6], the target named is collagen type I alpha1 peptide A, G70-G118, 5-carboxyfluorescein labelled. The description is as above.
Experiment [7] has as its target collagen type I alpha2 peptide C, Q72-G118, 5-carboxyfluorescein labelled. The experiment is described as above.
Experiment [8] has as its target collagen type I alpha1 peptide B, G772-G820, 5-carboxyfluorescein labelled. The description is as above.
Experiment [9] concerns the target fibronectin modules 8-9FnI, residues 516-608 (human) (UniProt P02751). Put plainly: NMR titration; 1H-15N HSQC of 8-9FnI, collagen peptide titrated in, PBS (20 mM Na2HPO4 pH 7.2, 150 mM NaCl), 25 °C; single binding event.

Where two headings read alike, the source gives them in different places. Square brackets hold non-standard residues; d marks the D form. Ends that are not written are not given here. Peptide text beside a SMILES is read from it. * marks the point of attachment. 5FAM = O=C1OC2(c3ccc(O)cc3Oc3cc(O)ccc32)c2ccc(C(=O)*)cc21; Hyp = O=C(O)[C@@H]1C[C@@H](O)CN1

T1 sequence (P02751 305-608 H307D/N528Q/R534K): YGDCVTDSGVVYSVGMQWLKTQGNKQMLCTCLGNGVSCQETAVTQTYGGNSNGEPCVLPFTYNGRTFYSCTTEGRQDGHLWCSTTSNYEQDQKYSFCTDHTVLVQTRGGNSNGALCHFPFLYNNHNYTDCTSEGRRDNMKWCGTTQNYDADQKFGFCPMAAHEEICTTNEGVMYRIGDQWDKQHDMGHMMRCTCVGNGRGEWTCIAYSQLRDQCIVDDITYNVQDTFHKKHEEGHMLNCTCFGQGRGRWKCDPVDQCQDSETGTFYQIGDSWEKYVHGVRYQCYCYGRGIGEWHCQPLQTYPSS
T3 sequence (P02751 305-515 H307D): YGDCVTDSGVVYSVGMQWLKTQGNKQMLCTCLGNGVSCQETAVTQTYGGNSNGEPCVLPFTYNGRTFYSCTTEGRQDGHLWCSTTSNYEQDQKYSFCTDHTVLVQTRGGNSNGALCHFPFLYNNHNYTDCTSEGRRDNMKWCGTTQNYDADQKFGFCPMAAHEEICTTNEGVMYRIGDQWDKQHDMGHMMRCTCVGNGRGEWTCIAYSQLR

As usually defined, the Kd is the equilibrium constant for the complex coming apart. “5FAM-QGARGF[Hyp]GT[Hyp]GL[Hyp]GFKGIRGHNGLDGLKGQ[Hyp]GA[Hyp]GVKGE[Hyp]GA[Hyp]GENG [C]” had an equilibrium dissociation constant (Kd) in [1] of 25.6 ± 2.6 µM.
As to `CSCC[C@H](NC(=O)CNC(=O)[C@@H]1C[C@@H](O)CN1C(=O)[C@H](CC(C)C)NC(=O)CNC(=O)[C@H](C)NC(=O)[C@@H](NC(=O)CNC(=O)[C@@H]1C[C@@H](O)CN1C(=O)[C@H](CC(C)C)NC(=O)CN)[C@@H](C)O)C(=O)N[C@@H](CCCCN)C(=O)NCC(=O)N[C@@H](Cc1c[nH]cn1)C(=O)N[C@@H](CCCNC(=N)N)C(=O)NCC(=O)N[C@@H](Cc1ccccc1)C(=O)N[C@@H](CO)C(=O)NCC(=O)N[C@@H](CC(C)C)C(=O)N[C@@H](CC(=O)O)C(=O)NCC(=O)N[C@@H](Cc1ccc(O)cc1)C(=O)O` [AN] (H-GL[Hyp]GTAGL[Hyp]GMKGHRGFSGLDGY-OH), the dissociation constant (Kd) in experiment [2] was 143 ± 17.3 µM.
On to “5FAM-GPQGLLGA[Hyp]GILGL[Hyp]GSRGERGL[Hyp]GVAGAVGEPGPLGIAGP[Hyp]GARGP[Hyp]G [D]”, for which, in experiment [1], the Kd came out at 5.8 ± 1 µM.
With “5FAM-GPQGIAGQRGVVGL[Hyp]GQRGERGF[Hyp]GL[Hyp]GPSGE[Hyp]GKQGPSGASGERGP[Hyp]G [B]”, the affinity in experiment [1], expressed as Kd, was 15.2 ± 2 µM.
The same measure, in the same setting: next, “5FAM-GPQGARGL[Hyp]GTAGL[Hyp]GMKGHRGFSGLDGAKGDAGPAGPKGE[Hyp]GS[Hyp]GENG [A]”: 97.9 ± 8.2 µM.
Consider “BN: Synthetic collagen type I α1 peptide 775–799 with C-terminal tyrosine (GLPGQRGVVGLPGQRGERGFPGLPGY; 4-hydroxyproline at peptide positions 3, 12, 21 and 24 (printed O); its leading GLO differs from the native GIA in peptide B. The text and PDB 3)”, for which the Kd in experiment [3] is 5 ± 1 µM.
On to `CC(C)C[C@H](NC(=O)CNC(=O)[C@H](CC(=O)O)NC(=O)[C@H](CC(C)C)NC(=O)CNC(=O)[C@H](CC(N)=O)NC(=O)[C@H](Cc1c[nH]cn1)NC(=O)CN)C(=O)N[C@@H](CCCCN)C(=O)NCC(=O)N[C@@H](CCC(N)=O)C(=O)N1C[C@H](O)C[C@H]1C(=O)NCC(=O)N[C@@H](C)C(=O)N1C[C@H](O)C[C@H]1C(=O)NCC(=O)N[C@H](C(=O)N[C@@H](CCCCN)C(=O)NCC(=O)N[C@@H](CCC(=O)O)C(=O)N1C[C@H](O)C[C@H]1C(=O)NCC(=O)N[C@@H](C)C(=O)N1C[C@H](O)C[C@H]1C(=O)NCC(=O)N[C@@H](CCC(=O)O)C(=O)N[C@@H](CC(N)=O)C(=O)NCC(=O)N[C@@H](Cc1ccc(O)cc1)C(=O)O)C(C)C` [CC] (H-GHNGLDGLKGQ[Hyp]GA[Hyp]GVKGE[Hyp]GA[Hyp]GENGY-OH), for which the Kd in experiment [4] stood at 248 ± 11.6 µM.
Consider “gelatin-binding domain (GBD) of human fibronectin, 6FnI1-2FnII7-9FnI, residues 305-608 (from UniProt P02751 305-608) (domain or fragment)”, for which the Kd in experiment [5] worked out at 6 µM; in [6], 98 µM; in experiment [7], 26 µM; in experiment [8], 15 µM.
As for “DN: Synthetic collagen type I α2 peptide 778–799 with C-terminal tyrosine (GAPGILGLPGSRGERGLPGVAGY; 4-hydroxyproline at peptide positions 3, 9 and 18 (printed O); C-terminal Tyr added for UV quantification)”, in experiment [3], the Kd was 8 ± 2 µM.
Take “collagen type I alpha1 peptide BN with Val783 changed to serine, G778-G799 with C-terminal tyrosine”: in experiment [9], the Kd came to 97 µM.
In experiment [2], `CC[C@H](C)[C@H](NC(=O)CNC(=O)[C@H](CCCCN)NC(=O)[C@H](Cc1ccccc1)NC(=O)CNC(=O)[C@@H]1C[C@@H](O)CN1C(=O)[C@H](CC(C)C)NC(=O)CNC(=O)[C@@H]1C[C@@H](O)CN1C(=O)[C@@H](NC(=O)CNC(=O)[C@@H]1C[C@@H](O)CN1C(=O)[C@H](Cc1ccccc1)NC(=O)CN)[C@@H](C)O)C(=O)N[C@@H](CCCNC(=N)N)C(=O)NCC(=O)N[C@@H](Cc1c[nH]cn1)C(=O)N[C@@H](CC(N)=O)C(=O)NCC(=O)N[C@@H](CC(C)C)C(=O)N[C@@H](CC(=O)O)C(=O)NCC(=O)N[C@@H](Cc1ccc(O)cc1)C(=O)O` [CN] (H-GF[Hyp]GT[Hyp]GL[Hyp]GFKGIRGHNGLDGY-OH) displayed a Kd of 2000 ± 200 µM.
For the compound `CC(C)C[C@H](NC(=O)CNC(=O)[C@H](CO)NC(=O)[C@@H](NC(=O)CNC(=O)[C@H](CCCNC(=N)N)NC(=O)[C@H](CCC(N)=O)NC(=O)CN)C(C)C)C(=O)N1C[C@H](O)C[C@H]1C(=O)NCC(=O)N[C@@H](CCC(N)=O)C(=O)N[C@@H](CCCNC(=N)N)C(=O)NCC(=O)N[C@@H](CCC(=O)O)C(=O)N[C@@H](CCCNC(=N)N)C(=O)NCC(=O)N[C@@H](Cc1ccccc1)C(=O)N1C[C@H](O)C[C@H]1C(=O)NCC(=O)N[C@@H](CC(C)C)C(=O)N1C[C@H](O)C[C@H]1C(=O)NCC(=O)N[C@@H](Cc1ccc(O)cc1)C(=O)O` [BN-S783V] (H-GQRGVSGL[Hyp]GQRGERGF[Hyp]GL[Hyp]GY-OH), in [2], the “KD ^8–9FnI (NMR interaction regime, in words)” value is reported as “fast interaction regime” and the Kd amounted to 96.5 ± 11.4 µM.

Values taken from paper PMC3682544, “Structural Analysis of Collagen Type I Interactions with Human Fibronectin Reveals a Cooperative Binding Mode” (The Journal of Biological Chemistry, 2013).
